Reference: PMC9764071 (Acta Pharmaceutica Sinica. B, 2022)

Tests used:
PD-1/PD-L1 interaction = PD-1/PD-L1 interaction (Homo sapiens, UniProt Q9NZQ7); test: TR-FRET assay of PD-1/PD-L1 interaction inhibition; assay type: binding
A375 cells = test: Cytotoxicity evaluation by Real-Time Cell Analyzing; assay type: cell-based; conditions: 20 μmol/L of compound; RTCA; versus control group
[1] = system: Lewis lung carcinoma (LLC) cells overexpressing hPD-L1 (LLC-hPD-L1); test: In vivo antitumor activity on Balb/c-nude mice; conditions: P39 4, 10 and 25 mg/kg
[2] = target: PD-1/PD-L1 interaction on MDA-MB-231 cells (Homo sapiens, UniProt Q9NZQ7); assay type: cell-based; conditions: P39 0–200 nmol/L, 24 h; immunostaining
[3] = target: PD-1/PD-L1 interaction on H460 cells (Homo sapiens, UniProt Q9NZQ7); assay type: cell-based
Acute toxicity test = assay type: in vivo, ICR mice
T cells in TILs = test: Flow cytometry of tumor infiltrating lymphocytes, MC38 model; assay type: in vivo, C57BL/6 mice
[4] = system: PD-1/PD-L1 interaction, H358 cells; test: PD-1/PD-L1 blockade bioassay; assay type: cell-based; conditions: P39-treated H358 cells versus untreated cells; concentration-dependent
[5] = system: Lewis lung carcinoma (LLC) cells overexpressing hPD-L1 (LLC-hPD-L1); test: In vivo antitumor activity, humanized LLC-hPD-L1 mouse model; set-up: species or system hPD-1-knockin C57BL/6 mice
H460 cells = test: PBMCs-mediated tumor cell-killing assay; assay type: cell-based, human; conditions: P39 100 or 200 nmol/L, 24 h
[6] = system: CD8, IFN-γ and GzmB expression; test: Immunohistochemistry; assay type: in vivo, mice; conditions: IHC of tumor tissues; Fig. S8
MC38 tumor cells = test: In vivo antitumor activity, MC38 mouse model; set-up: species or system C57BL/6 mice

PD-1/PD-L1 interaction, sequence (Q9NZQ7 19-238 limits assumed): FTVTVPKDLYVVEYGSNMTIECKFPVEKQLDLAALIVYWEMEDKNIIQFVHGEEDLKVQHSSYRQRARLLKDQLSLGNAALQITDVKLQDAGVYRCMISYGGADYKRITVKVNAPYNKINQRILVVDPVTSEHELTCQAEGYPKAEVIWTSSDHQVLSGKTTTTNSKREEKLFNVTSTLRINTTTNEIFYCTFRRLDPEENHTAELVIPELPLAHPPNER
PD-1/PD-L1 interaction on H460 cells, sequence (Q9NZQ7 19-290): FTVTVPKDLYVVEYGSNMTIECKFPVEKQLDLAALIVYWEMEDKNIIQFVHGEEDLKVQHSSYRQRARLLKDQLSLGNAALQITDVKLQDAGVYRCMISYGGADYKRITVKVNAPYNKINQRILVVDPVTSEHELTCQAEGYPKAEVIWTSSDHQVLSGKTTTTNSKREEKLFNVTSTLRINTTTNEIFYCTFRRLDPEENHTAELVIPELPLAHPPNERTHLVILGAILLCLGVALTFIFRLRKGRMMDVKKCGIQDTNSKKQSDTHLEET
PD-1/PD-L1 interaction on MDA-MB-231 cells, sequence (Q9NZQ7 19-290): as above

| Compound | IC50 (PD-1/PD-L1 interaction) | further results |
| --- | --- | --- |
| Cc1c(-c2ccccc2)cccc1N1C(=O)c2ccc(OCc3cccc(C#N)c3)c(CN3CCC[C@H]3C(=O)O)c2C1=O [P10] | 4.38 µM |  |
| Cc1c(-c2ccccc2)cccc1N1C(=O)c2ccc(OCc3cccc(C#N)c3)c(CNC3CCOCC3)c2C1=O [P9] | 1.14 µM |  |
| Cc1c(-c2ccccc2)cccc1N1C(=O)c2cc(CNCCNC(=O)OC(C)(C)C)c(OCc3cccc(C#N)c3)cc2C1=O [P20] | 0.395 µM |  |
| Cc1c(-c2ccccc2)cccc1N1C(=O)c2cc(CNCCO)c(OCc3ccc(C(C)C)cc3)cc2C1=O [P6] | 0.921 µM |  |
| Cc1c(-c2ccccc2)cccc1N1C(=O)c2cc(CN[C@H](C(=O)O)C(C)O)c(OCc3cccc(C#N)c3)cc2C1=O (some centres unmarked) [P39] | 0.0089 µM | ability to clear tumor cells in immunodeficient mice [1]: no ability to clear tumor cells; binding capacity of PD-1 to MDA-MB-231 cells [2]: significantly decreased in a dose-dependent manner; cytotoxicity, real-time growth of A375 cells (A375 cells): essentially non-toxic to A375 cells; inhibitory activity on PD-1 binding to tumor cells compared to BMS202 ([3]; 200 nmol/L, Fig. 4A and B): stronger inhibitory activity compared to the positive compound BMS202; binding capacity of PD-1 to H460 cells ([3]; P39 0–200 nmol/L, 24 h, flow cytometry and immunostaining): significantly decreased in a dose-dependent manner; LD50 at 14 days (Acute toxicity test; ICR, mouse, in vivo, po): > 5000 mg/kg; mortality and body weight loss (Acute toxicity test; oral single dose 5000 mg/kg, observed two weeks): no mortality and obvious body weight loss; population of CD4+ T cells in the tumor tissue (T cells in TILs; P39-treated mice versus control group, Fig. S6C): did not change compared to the control group; ratio of CD8+ to CD3+ T cells in the tumor (T cells in TILs; P39-treated mice, Fig. S6B and 6E): greatly increased; transcriptional-mediated bioluminescent signal [4]: significant increase; tumor inhibitory effect compared with BMS202 (10 mg/kg) ([5]; P39 25 mg/kg): much better activity; tumor inhibition rate ([5]; high dose, 25 mg/kg, 12 days of administration): 79.0%; inhibition rate of tumor growth ([5]; low dose, 10 mg/kg): 66.2%; sensitivity of tumor cells to T cell killing (activated human PBMCs) (H460 cells): greatly increased; expression of CD8, IFN-γ, and GzmB [6]: increased expression; tumor volume growth inhibition (MC38 tumor cells; 10 mg/kg i.p. once daily, 4 weeks): 54.9%; tumor volume growth inhibition (MC38 tumor cells; 25 mg/kg i.p. once daily, 4 weeks): 68.3%; final tumor weight (MC38 tumor cells; 10 and 25 mg/kg groups versus control group): significantly decreased; weight loss or death of mice during treatment (MC38 tumor cells; 10 and 25 mg/kg i.p. once daily, 4 weeks): No weight loss or death of mice |
| Cc1c(-c2ccccc2)cccc1N1C(=O)c2cc(CNCC(=O)OC(C)(C)C)c(OCc3cccc(C#N)c3)cc2C1=O [P32] | 1.16 µM |  |
| Cc1c(-c2ccccc2)cccc1N1C(=O)c2cc(CN[C@@H](C)C(=O)OC(C)(C)C)c(OCc3cccc(C#N)c3)cc2C1=O [P36] | 1.67 µM |  |
| Cc1c(-c2ccccc2)cccc1N1C(=O)c2cc(CN(C)CCO)c(OCc3cccc(C#N)c3)cc2C1=O [P19] | 0.15 µM |  |
| Cc1c(-c2ccccc2)cccc1N1C(=O)c2cc(CN3CCC[C@H]3CO)c(OCc3cccc(C#N)c3)cc2C1=O [P22] | 0.251 µM |  |
| Cc1c(-c2ccccc2)cccc1N1C(=O)c2cc(CN3CC[C@@H](O)C3)c(OCc3cccc(C#N)c3)cc2C1=O [P23] | 0.216 µM |  |
| COC(=O)CNCc1cc2c(cc1OCc1cccc(C#N)c1)C(=O)N(c1cccc(-c3ccccc3)c1C)C2=O [P31] | 0.836 µM |  |
| Cc1c(-c2ccccc2)cccc1N1C(=O)c2cc(CN[C@@H](Cc3ccccc3)C(=O)O)c(OCc3cccc(C#N)c3)cc2C1=O [P41] | 0.527 µM |  |
| Cc1c(-c2ccccc2)cccc1N1C(=O)c2cc(CN(C)CC(=O)OC(C)(C)C)c(OCc3cccc(C#N)c3)cc2C1=O [P34] | > 10 µM |  |
| Cc1c(-c2ccccc2)cccc1N1C(=O)c2cc(CN3CC(O)C3)c(OCc3cccc(C#N)c3)cc2C1=O [P25] | 0.187 µM |  |
| Cc1c(-c2ccccc2)cccc1N1C(=O)c2cc(CN3CCOCC3)c(OCc3cccc(C#N)c3)cc2C1=O [P24] | 0.738 µM |  |
| Cc1c(-c2ccccc2)cccc1N1C(=O)c2cc(CN3CCC[C@H]3C(N)=O)c(OCc3cccc(C#N)c3)cc2C1=O [P26] | 0.564 µM |  |
| Cc1c(-c2ccccc2)cccc1N1C(=O)c2cc(CNCCO)c(OCc3ccccc3)cc2C1=O [P5] | 0.216 µM |  |
| Cc1c(-c2ccccc2)cccc1N1C(=O)c2cc(CN[C@H](C(=O)OC(C)(C)C)C(C)O)c(OCc3cccc(C#N)c3)cc2C1=O (some centres unmarked) [P38] | > 10 µM |  |
| Cc1c(-c2ccccc2)cccc1N1C(=O)c2cc(CNCCO)c(OCc3ccc(C#N)cc3)cc2C1=O [P4] | 0.153 µM | cytotoxicity, real-time growth of A375 cells (A375 cells): essentially non-toxic to A375 cells |
| Cc1c(-c2ccccc2)cccc1N1C(=O)c2cc(CNCCN(C)C)c(OCc3cccc(C#N)c3)cc2C1=O [P21] | 0.189 µM |  |
| Cc1c(-c2ccccc2)cccc1N1C(=O)c2cc(CNCCO)c(OCc3ccccc3C#N)cc2C1=O [P3] | 0.171 µM | cytotoxicity, real-time growth of A375 cells (A375 cells): essentially non-toxic to A375 cells |
| Cc1c(-c2ccccc2)cccc1N1C(=O)c2cc(CN[C@@H](CO)C(=O)OC(C)(C)C)c(OCc3cccc(C#N)c3)cc2C1=O [P29] | 0.607 µM |  |
| Cc1c(-c2ccccc2)cccc1N1C(=O)c2cc(CN[C@@H](Cc3ccccc3)C(=O)OC(C)(C)C)c(OCc3cccc(C#N)c3)cc2C1=O [P40] | 1.69 µM |  |

More lines, main results first:

| IC50 (PD-1/PD-L1 interaction) | Compound | further results |
| --- | --- | --- |
| 0.0466 µM | Cc1c(-c2ccccc2)cccc1N1C(=O)c2cc(CN(C)CC(=O)O)c(OCc3cccc(C#N)c3)cc2C1=O [P35] |  |
| 0.0791 µM | CC(=O)NCCNCc1cc2c(cc1OCc1cccc(C#N)c1)C(=O)N(c1cccc(-c3ccccc3)c1C)C2=O [P18] |  |
| 0.014 µM | Cc1c(-c2ccccc2)cccc1N1C(=O)c2cc(CN[C@@H](CO)C(=O)O)c(OCc3cccc(C#N)c3)cc2C1=O [P30] | cytotoxicity, real-time growth of A375 cells (A375 cells): essentially non-toxic to A375 cells |
| 0.0316 µM | N#Cc1cccc(COc2cc3c(cc2CN2CCC[C@H]2C(=O)O)C(=O)N(c2cccc(-c4ccccc4)c2F)C3=O)c1 [P16] |  |
| 0.0587 µM | N#Cc1cccc(COc2cc3c(cc2CNC2CCOCC2)C(=O)N(c2cccc(-c4ccccc4)c2F)C3=O)c1 [P15] | cytotoxicity, real-time growth of A375 cells (A375 cells): essentially non-toxic to A375 cells |
| 0.0424 µM | Cc1c(-c2ccccc2)cccc1N1C(=O)c2cc(CN3CC(C(=O)O)C3)c(OCc3cccc(C#N)c3)cc2C1=O [P27] |  |
| 0.0454 µM | Cc1c(-c2ccccc2)cccc1N1C(=O)c2cc(CNCCO)c(OCc3cccc(C#N)c3)cc2C1=O [P1] | cytotoxicity, real-time growth of A375 cells (A375 cells): essentially non-toxic to A375 cells |
| 0.117 µM | Cc1c(-c2ccccc2)cccc1N1C(=O)c2cc(CN3CCCC[C@H]3C(=O)O)c(OCc3cccc(C#N)c3)cc2C1=O [P11] |  |
| 0.1 µM | N#Cc1cccc(COc2cc3c(cc2CN2CCCC[C@H]2C(=O)O)C(=O)N(c2cccc(-c4ccccc4)c2C#N)C3=O)c1 [P12] |  |
| 0.0456 µM | Cc1c(-c2ccccc2)cccc1N1C(=O)c2cc(CNC3CCOCC3)c(OCc3cccc(C#N)c3)cc2C1=O [P7] |  |
| 0.0393 µM | N#Cc1cccc(COc2cc3c(cc2CNC2CCOCC2)C(=O)N(c2cccc(-c4ccccc4)c2Cl)C3=O)c1 [P13] |  |
| 0.0116 µM | Cc1c(-c2ccccc2)cccc1N1C(=O)c2cc(CN[C@@H](C)C(=O)O)c(OCc3cccc(C#N)c3)cc2C1=O [P37] | cytotoxicity, real-time growth of A375 cells (A375 cells): essentially non-toxic to A375 cells |
| 0.0521 µM | Cc1c(-c2ccccc2)cccc1N1C(=O)c2cc(CN3CCC[C@H]3C(=O)O)c(OCc3cccc(C#N)c3)cc2C1=O [P8] | cytotoxicity, real-time growth of A375 cells (A375 cells): essentially non-toxic to A375 cells |
| 0.0221 µM | N#Cc1cccc(COc2cc3c(cc2CN2CCC[C@H]2C(=O)O)C(=O)N(c2cccc(-c4ccccc4)c2Cl)C3=O)c1 [P14] |  |
| 0.0133 µM | Cc1c(-c2ccccc2)cccc1N1C(=O)c2cc(CNCC(=O)O)c(OCc3cccc(C#N)c3)cc2C1=O [P33] | cytotoxicity, real-time growth of A375 cells (A375 cells): essentially non-toxic to A375 cells |
